Melting point, inhibition and pest or weed control data for 11 molecules are collected here from patent US20130281467A1, “NOVEL MICROBICIDES” (SYNGENTA PARTICIPATIONS AG, priority 2010, published 2013).

One may read the melting point as the temperature of the solid-liquid transition. What is called inhibition is the change of the read-out against control, counted positive when it falls.

Some results are limits rather than exact numbers.

In data set [1] the test system is Botryotinia fuckeliana (Botrytis cinerea). The experiment in a line: Fungicidal activity against Botryotinia fuckeliana (Botrytis cinerea) / liquid culture (gray mould). Format: cell-based. The note with it: 3-4 days after application, read-out: disease control (inhibition of growth, photometrically). How it is done:
Fungicidal Activity Against Botryotinia fuckeliana (Botrytis cinerea)/Liquid Culture (Gray Mould) Conidia of the fungus from cryogenic storage were directly mixed into nutrient broth (Vogels broth). After placing a (DMSO) solution of test compound into a microtiter plate (96-well format), the nutrient broth containing the fungal spores was added. The test plates were incubated at 24° C. and the inhibition of growth was determined photometrically 3-4 days after application.

Data set [2] deals with Mycosphaerella arachidis (Cercospora arachidicola). The experiment in a line: Fungicidal activity against Mycosphaerella arachidis (Cercospora arachidicola) / liquid culture (early leaf spot). In kind it is cell-based. The note with it: 4-5 days after application, read-out: disease control (inhibition of growth, photometrically). The protocol:
Fungicidal Activity Against Mycosphaerella arachidis (Cercospora arachidicola)/Liquid Culture (Early Leaf Spot) Conidia of the fungus from cryogenic storage were directly mixed into nutrient broth (PDB potato dextrose broth). After placing a (DMSO) solution of test compound into a microtiter plate (96-well format), the nutrient broth containing the fungal spores was added. The test plates were incubated at 24° C. and the inhibition of growth was determined photometrically 4-5 days after application.

Data set [3] relates to Blumeria graminis f. Sp. tritici (Erysiphe graminis f. sp. tritici). The experiment in a line: Fungicidal activity against Blumeria graminis f. sp. tritici / wheat / leaf disc preventative (powdery mildew on wheat). In kind it is in vivo. Particulars: foliar, wheat leaf segments, inoculated 1 day after application, compared to untreated, read-out: disease control. The protocol: Fungicidal Activity Against Blumeria graminis f. Sp. tritici (Erysiphe graminis f. sp. tritici)/Wheat/Leaf Disc Preventative (Powdery Mildew on Wheat)
Wheat leaf segments cv. Kanzler were placed on agar in a multiwell plate (24-well format) and sprayed with the formulated test compound diluted in water. The leaf disks were inoculated by shaking powdery mildew infected plants above the test plates 1 day after application. The inoculated leaf disks were incubated at 20° C. and 60% rh under a light regime of 24 h darkness followed by 12 h light/12 h darkness in a climate chamber and the activity of a compound was assessed as percent disease control compared to untreated when an appropriate level of disease damage appears on untreated check leaf segments (6-8 days after application).

The test system of a further data set is Gaeumannomyces graminis. The experiment in a line: Fungicidal activity against Gaeumannomyces graminis / liquid culture (take-all of cereals). Format: cell-based. Particulars: 4-5 days after application, read-out: disease control (inhibition of growth, photometrically). The protocol: Fungicidal Activity Against Gaeumannomyces graminis/Liquid Culture (Take-all of Cereals) Mycelial fragments of the fungus from cryogenic storage were directly mixed into nutrient broth (PDB potato dextrose broth). After placing a (DMSO) solution of test compound into a microtiter plate (96-well format), the nutrient broth containing the fungal spores iss added. The test plates were incubated at 24° C. and the inhibition of growth was determined photometrically 4-5 days after application.

In data set [4] the test system is Glomerella lagenarium (Colletotrichum lagenarium). The experiment in a line: Fungicidal activity against Glomerella lagenarium (Colletotrichum lagenarium) / liquid culture (anthracnose). Particulars: Colletotrichum orbiculare, 3-4 days after application, read-out: disease control (inhibition of growth, photometrically). Format: cell-based. How it is done: Fungicidal Activity Against Glomerella lagenarium (Colletotrichum lagenarium)/Liquid Culture (Anthracnose) Conidia of the fungus from cryogenic storage were directly mixed into nutrient broth (PDB potato dextrose broth). After placing a (DMSO) solution of test compound into a microtiter plate (96-well format), the nutrient broth containing the fungal spores was added. The test plates were incubated at 24° C. and the inhibition of growth was measured photometrically 3-4 days after application.

The test system of data set [5] is Monographella nivalis (Microdochium nivale). Kind of data set: Fungicidal activity against Monographella nivalis (Microdochium nivale) / liquid culture (foot rot cereals). In kind it is cell-based. The note with it: 4-5 days after application, read-out: disease control (inhibition of growth, photometrically). How it is done:
Fungicidal Activity Against Monographella nivalis (Microdochium nivale)/Liquid Culture (Foot Rot Cereals) Conidia of the fungus from cryogenic storage were directly mixed into nutrient broth (PDB potato dextrose broth). After placing a (DMSO) solution of test compound into a microtiter plate (96-well format), the nutrient broth containing the fungal spores was added. The test plates were incubated at 24° C. and the inhibition of growth was determined photometrically 4-5 days after application.

Data set [6] concerns Mycosphaerella graminicola (Septoria tritici). The experiment in a line: Fungicidal activity against Mycosphaerella graminicola (Septoria tritici) / liquid culture (Septoria blotch). The note with it: Zymoseptoria tritici, 4-5 days after application, read-out: disease control (inhibition of growth, photometrically). In kind it is cell-based. How it is done:
Fungicidal Activity Against Mycosphaerella graminicola (Septoria tritici)/Liquid Culture (Septoria Blotch) Conidia of the fungus from cryogenic storage were directly mixed into nutrient broth (PDB potato dextrose broth). After placing a (DMSO) solution of test compound into a microtiter plate (96-well format), the nutrient broth containing the fungal spores was added. The test plates were incubated at 24° C. and the inhibition of growth was determined photometrically 4-5 days after application.

Data set [7] deals with Phaeosphaeria nodorum (Septoria nodorum). Kind of data set: Fungicidal activity against Phaeosphaeria nodorum (Septoria nodorum) / wheat / leaf disc preventative (glume blotch). In kind it is in vivo. Particulars: Parastagonospora nodorum, foliar, wheat leaf segments, inoculated 2 days after application, compared to untreated, read-out: disease control. The protocol:
Fungicidal Activity Against Phaeosphaeria nodorum (Septoria nodorum)/Wheat/Leaf Disc Preventative (Glume Blotch) Wheat leaf segments cv. Kanzler were placed on agar in a multiwell plate (24-well format) and sprayed with the formulated test compound diluted in water. The leaf disks were inoculated with a spore suspension of the fungus 2 days after application. The inoculated test leaf disks were incubated at 20° C. and 75% rh under a light regime of 12 h light/12 h darkness in a climate cabinet and the activity of a compound was assessed as percent disease control compared to untreated when an appropriate level of disease damage appears in untreated check leaf disks (5-7 days after application).

For data set [8], the system named is Puccinia recondita f. sp. tritici. The experiment in a line: Fungicidal activity against Puccinia recondita f. sp. tritici / wheat / leaf disc preventative (brown rust). The note with it: foliar, wheat leaf segments, inoculated 1 day after application, compared to untreated, read-out: disease control. Format: in vivo. How it is done:
Fungicidal Activity Against Puccinia recondita f. sp. tritici/Wheat/Leaf Disc Preventative (Brown Rust) Wheat leaf segments cv. Kanzler were placed on agar in multiwell plates (24-well format) and sprayed with the formulated test compound diluted in water. The leaf disks were inoculated with a spore suspension of the fungus 1 day after application. The inoculated leaf segments were incubated at 19° C. and 75% rh under a light regime of 12 h light/12 h darkness in a climate cabinet and the activity of a compound was assessed as percent disease control compared to untreated when an appropriate level of disease damage appears in untreated check leaf segments (7-9 days after application).

Another data set concerns Pyrenophora teres. The experiment in a line: Fungicidal activity against Pyrenophora teres / barley / leaf disc preventative (net blotch). Format: in vivo. The note with it: foliar, barley leaf segments, inoculated 2 days after application, compared to untreated, read-out: disease control. How it is done: Fungicidal Activity Against Pyrenophora teres/Barley/Leaf Disc Preventative (Net Blotch) Barley leaf segments cv. Hasso were placed on agar in a multiwell plate (24-well format) and sprayed with the formulated test compound diluted in water. The leaf segments were inoculated with a spore suspension of the fungus 2 days after application. The inoculated leaf segments were incubated at 20° C. and 65% rh under a light regime of 12 h light/12 h darkness in a climate cabinet and the activity of a compound was assessed as disease control compared to untreated when an appropriate level of disease damage appears in untreated check leaf segments (5-7 days after application).

Data set [9] deals with Thanatephorus cucumeris (Rhizoctonia solani). Kind of data set: Fungicidal activity against Thanatephorus cucumeris (Rhizoctonia solani) / liquid culture (foot rot, damping-off). Format: cell-based. Particulars: 3-4 days after application, read-out: disease control (inhibition of growth, photometrically). How it is done:
Fungicidal Activity Against Thanatephorus cucumeris (Rhizoctonia solani)/Liquid Culture (Foot Rot, Damping-Off) Mycelia fragments of a newly grown liquid culture of the fungus were directly mixed into nutrient broth (PDB potato dextrose broth). After placing a (DMSO) solution of the test compounds into a microtiter plate (96-well format), the nutrient broth containing the fungal material was added. The test plates were incubated at 24° C. and the inhibition of growth was determined photometrically 3-4 days after application.

`N#Cc1cccc(Cc2cccc(-c3ncc4c(n3)CCOC4)n2)c1` [Compound 8] gave a melting point of 206 to 207 °C.

Molecule `CO/N=C1\CC(C)(C)Cc2nc(-c3cccc(Cc4ccccc4OC)n3)ncc21` [Compound 10] gave a melting point of 239 to 241 °C.

Molecule `CC1(C)CCc2cnc(-c3cccc(Cc4ccc(Cl)cc4)n3)nc2C1` [Compound 12] showed a melting point of 183 to 184 °C. In addition, the inhibition at 200 ppm in data set [1] is no less than 80%. The inhibition at 200 ppm in data set [2] is no less than 80%.

Turning to `Cc1ccc(Cc2cccc(-c3ncc4c(n3)CCCCC4)n2)cc1` [Compound 30], the pest or weed control at 200 ppm (in [3]; in data set [7]; in [8]; with Pyrenophora teres) was no less than 80% throughout. The inhibition at 200 ppm (in [1]; in the data set with Gaeumannomyces graminis; in [4]; in data set [5]; in [2]; in data set [6]) was no less than 80% in each case. The inhibition at 200 ppm in data set [9] was no less than 80%.

Take `Cc1ccccc1Cc1cccc(-c2ncc3c(n2)CCCCC3)n1` [Compound 32]: the pest or weed control at 200 ppm (in data set [3]; in data set [7]; in [8]; in the data set on Pyrenophora teres) was no less than 80% throughout. The inhibition at 200 ppm (in data set [1]; with Gaeumannomyces graminis; in data set [4]; in data set [5]; in data set [2]; in data set [6]) was no less than 80% each time. Moreover, the inhibition at 200 ppm in data set [9] was no less than 80%.

As for `COc1ccccc1Cc1cccc(-c2ncc3c(n2)CCCCC3)n1` [Compound 34], the pest or weed control at 200 ppm (in [3]; in data set [7]; in data set [8]; in the data set with Pyrenophora teres) was no less than 80% each time. Further, the inhibition at 200 ppm (in [1]; in the data set with Gaeumannomyces graminis; in data set [4]; in [5]; in data set [2]; in data set [6]) was no less than 80% each time. Moreover, the inhibition at 200 ppm in data set [9] is no less than 80%.

For the molecule `COc1ccc(Cc2cccc(-c3ncc4c(n3)CCCCC4)n2)cc1` [Compound 35], the pest or weed control at 200 ppm (in [3]; in data set [7]; in data set [8]; in the data set with Pyrenophora teres) was no less than 80% throughout. For the same molecule, the inhibition at 200 ppm (in data set [1]; in the data set with Gaeumannomyces graminis; in [4]; in data set [5]; in data set [2]; in data set [6]) was no less than 80% in each case. The inhibition at 200 ppm in data set [9] is no less than 80%.

As to `COc1ccc(Cc2cccc(-c3ncc4c(n3)CC(C)(C)CC4)n2)cc1` [Compound 37], the pest or weed control at 200 ppm (in [3]; in [7]; in data set [8]; in the data set on Pyrenophora teres) was no less than 80% throughout. Further, the inhibition at 200 ppm (in data set [1]; in the data set with Gaeumannomyces graminis; in data set [4]; in [5]; in [2]; in [6]) was no less than 80% in each case. Besides, the inhibition at 200 ppm in [9] was no less than 80%.

As to `COc1ccc(Cc2cccc(-c3ncc4c(n3)CCCC4)n2)cn1` [Compound 41], the pest or weed control at 200 ppm (in [3]; in data set [7]; in [8]; in the data set on Pyrenophora teres) was no less than 80% each time. Further, the inhibition at 200 ppm (in [1]; in the data set with Gaeumannomyces graminis; in [4]; in [5]; in [2]; in data set [6]) was no less than 80% each time. Also, the inhibition at 200 ppm in [9] is no less than 80%.

Consider `COc1ccc(Cc2cccc(-c3ncc4c(n3)CC(C)(C)CC4)n2)cn1` [Compound 42], for which the pest or weed control at 200 ppm (in [3]; in data set [7]; in data set [8]; with Pyrenophora teres) was no less than 80% in each case. Moreover, the inhibition at 200 ppm (in data set [1]; in the data set with Gaeumannomyces graminis; in data set [4]; in data set [5]; in data set [2]; in data set [6]) was no less than 80% each time. Moreover, the inhibition at 200 ppm in data set [9] was no less than 80%.

`COc1ccc(C(C)c2cccc(-c3ncc4c(n3)CCCC4)n2)nc1` (stereo not drawn) [Compound 44]: the pest or weed control at 200 ppm (in [3]; in [7]; in data set [8]; in the data set on Pyrenophora teres) was no less than 80% in each case. Moreover, the inhibition at 200 ppm (in [1]; in the data set on Gaeumannomyces graminis; in data set [4]; in data set [5]; in data set [2]; in data set [6]) was no less than 80% throughout. Moreover, the inhibition at 200 ppm in data set [9] was no less than 80%.
